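Test compounds were applied to cells in 96-well plates for 48 hours at 5 doses. GI50: concentration for 50% inhibition of growth.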 The source made the active and inactive calls. No stated cut-off is given here; in the data, active = GI50 up to about 1.1 µM and inactive = higher.
Tests used:
Assay in all cases: inhibition of tumour cell growth, NCI panel, 48 h
CAKI-1 = system: CAKI-1
TK-10 = system: TK-10
IGROV-1 = system: IGROV-1
M19-MEL = system: M19-MEL
HCT-15 = system: HCT-15
UO-31 = system: UO-31
RXF 393 = system: RXF 393
UACC-62 = system: UACC-62
M14 = system: M14
SNB-19 = system: SNB-19
HOP-62 = system: HOP-62
SW-620 = system: SW-620
HCC 2998 = system: HCC 2998
NCI-H226 = system: NCI-H226
SK-MEL-2 = system: SK-MEL-2
HL-60 = system: HL-60
NCI/ADR-RES = system: NCI/ADR-RES
MDA-MB-435 = system: MDA-MB-435
PC-3 = system: PC-3
T47D = system: T47D

Structure (SMILES)	GI50 (CAKI-1)	GI50 (TK-10)	GI50 (IGROV-1)	GI50 (M19-MEL)	GI50 (HCT-15) [µM]	GI50 (UO-31)	GI50 (RXF 393)	GI50 (UACC-62)	GI50 (M14)	GI50 (SNB-19)	GI50 (HOP-62)	GI50 (SW-620)	GI50 (HCC 2998)	GI50 (NCI-H226)	GI50 (SK-MEL-2)	GI50 (HL-60)	GI50 (NCI/ADR-RES)	GI50 (MDA-MB-435)	GI50 (PC-3)	GI50 (T47D)
COC(=O)C1=C(c2cc(OC)c(OC)c(OC)c2)OC(c2cc(OC)c(OC)c(OC)c2)C1 (stereo not given)	21.8 µM (inactive)	25 µM (inactive)	20.1 µM (inactive)	26.7 µM (inactive)	22.7	12.3 µM (inactive)	33.9 µM (inactive)	12.8 µM (inactive)	20.5 µM (inactive)	19.5 µM (inactive)	37.8 µM (inactive)	34.4 µM (inactive)	20.1 µM (inactive)	17.1 µM (inactive)						
COc1ccc(CCNCc2cccc(OC)c2OC)cc1OC	> 100 µM (inactive)	> 100 µM (inactive)	> 100 µM (inactive)	> 100 µM (inactive)	> 100	> 100 µM (inactive)	> 100 µM (inactive)	> 100 µM (inactive)	> 100 µM (inactive)	> 100 µM (inactive)	> 100 µM (inactive)	> 100 µM (inactive)	> 100 µM (inactive)		> 100 µM (inactive)	> 100 µM (inactive)				
Cc1ccc(/C=N\NC2c3cc(Cl)ccc3Nc3nc(O)nc(C)c32)cc1 (stereo not given)		> 100 µM (inactive)	84.3 µM (inactive)	> 100 µM (inactive)		> 100 µM (inactive)	> 100 µM (inactive)	> 100 µM (inactive)	57.1 µM (inactive)	> 100 µM (inactive)	> 100 µM (inactive)	67.8 µM (inactive)	95.7 µM (inactive)	> 100 µM (inactive)	> 100 µM (inactive)	43.3 µM (inactive)				
CC1COC(C)(C)P(=O)(c2ccccc2)C1 (stereo not given)		> 100 µM (inactive)	> 100 µM (inactive)	> 100 µM (inactive)	> 100	> 100 µM (inactive)	> 100 µM (inactive)	> 100 µM (inactive)	> 100 µM (inactive)	> 100 µM (inactive)	> 100 µM (inactive)	> 100 µM (inactive)	> 100 µM (inactive)	> 100 µM (inactive)	> 100 µM (inactive)	> 100 µM (inactive)				
CC1(C)C=C(N2CCN(C3=CC(C)(C)NC(C)(C)C3)CC2)CC(C)(C)N1	> 100 µM (inactive)	> 100 µM (inactive)	> 100 µM (inactive)	> 100 µM (inactive)	> 100	> 100 µM (inactive)		> 100 µM (inactive)	> 100 µM (inactive)	> 100 µM (inactive)	> 100 µM (inactive)	> 100 µM (inactive)	> 100 µM (inactive)			> 100 µM (inactive)				
CCOC(=O)/C(=C\c1ccc(OCc2ccccc2)c(OC)c1)C(=O)c1ccccc1	24.7 µM (inactive)	27.5 µM (inactive)	29.7 µM (inactive)	22.1 µM (inactive)	20.4	18.1 µM (inactive)		23.3 µM (inactive)	15 µM (inactive)	27.7 µM (inactive)	18.9 µM (inactive)	18.4 µM (inactive)	36.1 µM (inactive)	25.7 µM (inactive)	19.6 µM (inactive)	20.1 µM (inactive)				
O=C1OC(Cc2ccccc2)(N2CCCC2=O)C1c1ccccc1 (stereo not given)	> 100 µM (inactive)	> 100 µM (inactive)		> 100 µM (inactive)		> 100 µM (inactive)		60 µM (inactive)	> 100 µM (inactive)	47.2 µM (inactive)	> 100 µM (inactive)	65.5 µM (inactive)		> 100 µM (inactive)	> 100 µM (inactive)	43 µM (inactive)				
COc1cc(/C=C2\[C@@H]3NC(Cc4c(OC)c(C)c(OC)c(OC)c43)C(=O)N2Cc2ccccc2)c(OC)c(C)c1OC	48 µM (inactive)	40.6 µM (inactive)	34.1 µM (inactive)	28.5 µM (inactive)		27 µM (inactive)	23 µM (inactive)	47.5 µM (inactive)	31.3 µM (inactive)	80.5 µM (inactive)	54.1 µM (inactive)	68.9 µM (inactive)	38.6 µM (inactive)	36.7 µM (inactive)	19.9 µM (inactive)	24.6 µM (inactive)				
CC(=O)C(CN(C(C)C)C(C)C)C(c1ccccc1)c1c(O)c2ccccc2oc1=O (stereo not given)	> 100 µM (inactive)	> 100 µM (inactive)	> 100 µM (inactive)	> 100 µM (inactive)	> 100	> 100 µM (inactive)	60.1 µM (inactive)	> 100 µM (inactive)	> 100 µM (inactive)	> 100 µM (inactive)	> 100 µM (inactive)	> 100 µM (inactive)		> 100 µM (inactive)	> 100 µM (inactive)	> 100 µM (inactive)				
Cc1ccc(S(=O)OC23CC4CC(CC(C4)C2)C3)cc1 (stereo not given)	> 100 µM (inactive)	> 100 µM (inactive)	29.4 µM (inactive)	> 100 µM (inactive)	> 100	41.2 µM (inactive)	70.1 µM (inactive)	> 100 µM (inactive)	> 100 µM (inactive)	> 100 µM (inactive)	> 100 µM (inactive)	84.1 µM (inactive)	> 100 µM (inactive)	> 100 µM (inactive)		19.4 µM (inactive)				
COc1ccc(C2=C(Cl)c3cc(OC)c(OC)cc3C2)cc1OC			> 100 µM (inactive)	> 100 µM (inactive)	> 100	> 100 µM (inactive)	24.4 µM (inactive)	> 100 µM (inactive)	> 100 µM (inactive)	> 100 µM (inactive)	> 100 µM (inactive)	> 100 µM (inactive)	> 100 µM (inactive)	> 100 µM (inactive)		> 100 µM (inactive)				
CC(=O)N1CCN(c2ccc(OCC3COC(Cn4ccnc4)(c4ccc(Cl)cc4Cl)O3)cc2)CC1 (stereo not given) [KETOCONAZOLE]	35.5 µM (inactive)	37.8 µM (inactive)	38.7 µM (inactive)	21.4 µM (inactive)	25.8	25.8 µM (inactive)	22.2 µM (inactive)	15.4 µM (inactive)	22.4 µM (inactive)		39.4 µM (inactive)	48 µM (inactive)	28.4 µM (inactive)	18.7 µM (inactive)	17.4 µM (inactive)	20.1 µM (inactive)				
COc1ccc(Cn2c(C)nc3c2C(=O)c2ccccc2C3=O)cc1		11 µM (inactive)	9.86 µM (inactive)	7.91 µM (inactive)	1.72	10.5 µM (inactive)	14 µM (inactive)	4.58 µM (inactive)	11.6 µM (inactive)	22.3 µM (inactive)	11.6 µM (inactive)	8.07 µM (inactive)	18.8 µM (inactive)	14.3 µM (inactive)	13.2 µM (inactive)	4.17 µM (inactive)				
O=C1CC(=O)c2c(N3CCCC3)sc(N3CCCC3)c21	> 100 µM (inactive)	> 100 µM (inactive)	> 100 µM (inactive)		> 100	> 100 µM (inactive)	> 100 µM (inactive)	> 100 µM (inactive)	> 100 µM (inactive)	> 100 µM (inactive)	> 100 µM (inactive)	> 100 µM (inactive)	> 100 µM (inactive)	> 100 µM (inactive)	> 100 µM (inactive)	> 100 µM (inactive)	> 100 µM (inactive)	> 100 µM (inactive)	> 100 µM (inactive)	> 100 µM (inactive)

— ChEMBL document CHEMBL1201862, “PubChem BioAssay data set” (2004)
